# According to US11433090B2, “mTOR-inhibitor-containing medicine for treating or preventing ophthalmic symptoms, disorders, or diseases, and application thereof” (The Doshisha, priority 2017, dated 2022):
# Tested on: caspase 3/7
# Experiment: Caspase-Glo 3/7 Assay in iFECD stimulated with TGF-β2
# Type: cell-based, human
# Conditions: TGF-β2 10 ng/ml, Dunnett-t test, n=5
# Protocol: The medium was removed from a culture dish in which iFECDs were being cultured, and the cells were supplemented with 1×PBS (−) that was preheated to 37° C., and were washed. This was repeated twice. The cells were supplemented again with 1×PBS (−) and incubated for 3 minutes at 37° C. (5% CO2). After removing the PBS (−), the cells were supplemented with 0.05% Trypsin-EDTA (Nacalai Tesque, 32778-34) and incubated for 5 minutes at 37° C. (5% CO2). The cells were then suspended in a medium, and collected by centrifugation at 1500 rpm for 3 minutes. DMEM (Nacalai Tesque, 08456-36)+10% FBS (Biowest, S1820-500)+1% P/S (Nacalai Tesque, 26252-94) was used as the medium.
# Corneal endothelial cells from immortalized FECD patients (lot: iFECD3-5) were seeded on a 96-well plate at a ratio of 4×10^3 cells per well and cultured for 24 hours at 37° C. (5% CO2) (medium: DMEM+10% FBS+1% P/S). After 24 hours, the medium was removed. Each mTOR inhibitor was added to culture the cells for 24 hours (medium: DMEM+2% FBS+1% P/S). After 24 hours, the medium was removed. Media containing 10 ng/ml of Recombinant Human TGF-β2 (Wako, 200-19911) and each mTOR inhibitor were added to culture the cells for 24 hours (medium: DMEM+2% FBS+1% P/S). After 24 hours, the cell morphology and apoptosis were observed under a phase difference microscope.
# After observation, measurement of caspase 3/7 activity by Caspase-Glo® 3/7 Assay was carried out with the following procedure.
# The medium was discarded to achieve 50 μl per well. 50 μl/well of Caspase Glo® 3/7 Assay Reagent (mixture of Caspase-Glo® 3/7 Assay Buffer and Caspase-Glo® 3/7 Assay Substrate) (Promega, G8091) solution was added so as to achieve 1:1 with the medium. The operations hereafter were carried out while being shaded. A shaker was used to mix the content well for two minutes at about 120 minutes^−1 to then be left for 40 minutes at room temperature. After being left, 80 μl was moved to Assay plate (Corning, 3912, Assay plate 96 well, white polystyrene) and […] was measured using GloMax-Multi Detection System (Promega, E7051).
# The following mTOR inhibitors were used in this Example. • Rapamycin (Wako, #53123-88-9) • Everolimus (Cayman Chemical, #11597) • Temsirolimus (Tocris Bioscience, #5264) • PI-103 (Cayman Chemical, #10009209) • CC-223 (Cayman Chemical, #19917) • INK128 (Cayman Chemical, #11811) • AZD8055 (Cayman Chemical, #16978) • KU 0063794 (Tocris Bioscience, #3725)
Compound,activity of caspase 3/7 compared to control (0.01 μM),activity of caspase 3/7 compared to control (0.1 μM),activity of caspase 3/7 compared to control (1 μM),activity of caspase 3/7 compared to control (0.001 μM),activity of caspase 3/7 compared to control (0.00001 μM),activity of caspase 3/7 compared to control (0.0001 μM),activity of caspase 3/7 compared to control (0.000001 μM),activity of caspase 3/7 compared to control (10 μM)
COc1ccc(-c2ccc3c(N4CCOC[C@@H]4C)nc(N4CCOC[C@@H]4C)nc3n2)cc1CO [AZD8055],significantly suppressed,significantly suppressed,significantly suppressed,,,,,
CO[C@H]1CC[C@H](N2C(=O)CNc3ncc(-c4ccc(C(C)(C)O)nc4)nc32)CC1 [CC-223],significantly suppressed,significantly suppressed,significantly suppressed,significantly suppressed,,,,
CC(C)n1nc(-c2ccc3oc(N)nc3c2)c2c(N)ncnc21 [INK128],significantly suppressed,significantly suppressed,significantly suppressed,significantly suppressed,,,,
COc1ccc(-c2ccc3c(N4CCOCC4)nc(N4C[C@@H](C)O[C@@H](C)C4)nc3n2)cc1CO [KU 0063794],significant difference was not found,significantly suppressed,significantly suppressed,significant difference was not found,,,,
Oc1cccc(-c2nc(N3CCOCC3)c3oc4ncccc4c3n2)c1 [PI-103],significantly suppressed,significantly suppressed,significant difference was not found,significantly suppressed,,,,
"CO[C@H]1C[C@@H]2CC[C@@H](C)[C@@](O)(O2)C(=O)C(=O)N2CCCC[C@H]2C(=O)O[C@H]([C@H](C)C[C@@H]2CC[C@@H](OCCO)[C@H](OC)C2)CC(=O)[C@H](C)/C=C(\C)[C@@H](O)[C@@H](OC)C(=O)[C@H](C)C[C@H](C)/C=C/C=C/C=C/1C [everolimus, Everolimus]",significantly suppressed,significantly suppressed,,significantly suppressed,significantly suppresses,significantly suppressed,,
"CO[C@H]1C[C@@H]2CC[C@@H](C)[C@@](O)(O2)C(=O)C(=O)N2CCCC[C@H]2C(=O)O[C@H]([C@H](C)C[C@@H]2CC[C@@H](OC(=O)C(C)(CO)CO)[C@H](OC)C2)CC(=O)[C@H](C)/C=C(\C)[C@@H](O)[C@@H](OC)C(=O)[C@H](C)C[C@H](C)/C=C/C=C/C=C/1C [temsirolimus, Temsirolimus]",significantly suppressed,significantly suppressed,significantly suppressed,significantly suppressed,significantly suppressed,significantly suppressed,significant difference was not found,significantly suppressed
